Assay results reported in ChEMBL document CHEMBL1777768, “Comparative CYP1A1 and CYP1B1 substrate and inhibitor profile of dietary flavonoids” (Bioorg Med Chem, 2011).
The source made the active and inactive calls. The rule behind the calls is not given here.

Tests used:
MDA-MB-468 [1] = assay: Anticancer activity against CYP1 expressing human MDA-MB-468 cells by MTT assay; assay type: functional, cell-based
Cytochrome P450 1B1 = target: T1, Cytochrome P450 1B1 (Homo sapiens, UniProt Q16678); assay: Inhibition of CYP1B1 EROD activity assessed as inhibition of deethylation of 7-ethoxyresorufin to resorufin; assay type: ADME
T1 sequence (Q16678 whole entry): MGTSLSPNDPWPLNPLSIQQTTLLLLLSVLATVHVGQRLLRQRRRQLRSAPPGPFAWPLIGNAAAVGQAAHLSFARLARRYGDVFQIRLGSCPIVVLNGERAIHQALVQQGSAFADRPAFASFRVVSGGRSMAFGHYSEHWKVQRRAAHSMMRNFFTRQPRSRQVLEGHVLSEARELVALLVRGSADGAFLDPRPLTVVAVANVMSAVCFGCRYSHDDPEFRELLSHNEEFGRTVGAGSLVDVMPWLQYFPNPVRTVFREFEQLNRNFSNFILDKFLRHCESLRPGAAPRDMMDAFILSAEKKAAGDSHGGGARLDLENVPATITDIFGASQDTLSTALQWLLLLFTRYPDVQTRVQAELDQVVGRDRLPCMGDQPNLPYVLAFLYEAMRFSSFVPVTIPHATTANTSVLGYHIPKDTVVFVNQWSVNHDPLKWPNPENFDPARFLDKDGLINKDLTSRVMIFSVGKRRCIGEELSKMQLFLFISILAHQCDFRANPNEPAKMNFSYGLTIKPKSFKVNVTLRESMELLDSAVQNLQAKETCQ

Cytochrome P450 1A1 [2] = target: T2, Cytochrome P450 1A1 (Homo sapiens, UniProt P04798); assay: Inhibition of CYP1A1 EROD activity assessed as inhibition of deethylation of 7-ethoxyresorufin to resorufin; assay type: ADME
T2 sequence (P04798 whole entry): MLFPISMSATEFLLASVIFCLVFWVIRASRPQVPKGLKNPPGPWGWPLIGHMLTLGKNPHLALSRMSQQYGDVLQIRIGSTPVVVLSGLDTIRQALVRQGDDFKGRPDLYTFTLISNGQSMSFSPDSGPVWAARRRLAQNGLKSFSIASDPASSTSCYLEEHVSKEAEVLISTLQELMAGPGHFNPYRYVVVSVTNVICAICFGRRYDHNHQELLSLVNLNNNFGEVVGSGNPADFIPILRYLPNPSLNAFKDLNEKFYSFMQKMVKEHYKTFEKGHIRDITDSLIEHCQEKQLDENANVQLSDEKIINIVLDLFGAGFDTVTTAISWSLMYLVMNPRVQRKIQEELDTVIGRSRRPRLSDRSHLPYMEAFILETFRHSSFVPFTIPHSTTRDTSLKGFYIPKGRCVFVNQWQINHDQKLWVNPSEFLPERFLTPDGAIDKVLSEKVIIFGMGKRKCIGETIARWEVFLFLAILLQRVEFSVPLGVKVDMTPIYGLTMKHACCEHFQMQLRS

MCF-10A = assay: Anticancer activity against non-CYP1 expressing human MCF10A cells by MTT assay; assay type: functional, cell-based
CYP1A1 = target: T3, CYP1A1 (Homo sapiens, UniProt P04798); assay: Activity at CYP1A1 in recombinant human CYP1A1 microsomes assessed as parent compound remaining after 20 mins by HPLC analysis
T3 sequence (P04798 whole entry): T2 sequence (P04798 whole entry)

Cytochrome P450 1A1 [3] = target: T2, Cytochrome P450 1A1; assay: Activity at recombinant CYP1A1 assessed as E5M1 metabolite elution time at 10 uM by HPLC analysis; assay type: ADME; details: recombinant enzyme
MDA-MB-468 [4] = assay: Activation factor, ratio of IC50 for non-CYP1 expressing human MCF10A to IC50 for CYP1 expressing human MDA-MB-468 cells; assay type: functional
[5] = target: Cytochrome P450 1B1 (Homo sapiens) (UniProt Q16678); assay: Activity at recombinant CYP1B1 assessed as E5M1 metabolite elution time at 10 uM by HPLC analysis; details: recombinant enzyme
Cytochrome P450 1A1 [6] = target: T2, Cytochrome P450 1A1; assay: Activity at recombinant CYP1A1 assessed as AM1 metabolite retention time at 10 uM by HPLC analysis; assay type: ADME; details: recombinant enzyme
Cytochrome P450 1A1 [7] = target: T2, Cytochrome P450 1A1; assay: Activity at recombinant CYP1A1 assessed as scutellarein production at 10 uM after 20 mins by HPLC analysis; assay type: ADME; details: recombinant enzyme
Cytochrome P450 1A1 [8] = target: T2, Cytochrome P450 1A1; assay: Activity at recombinant CYP1A1 assessed as apigenin production at 10 uM after 20 mins by HPLC analysis; assay type: ADME; details: recombinant enzyme
Cytochrome P450 1A1 [9] = target: T2, Cytochrome P450 1A1; assay: Activity at recombinant CYP1A1 assessed as AM1 metabolite production at 10 uM after 20 mins by HPLC analysis; assay type: ADME; details: recombinant enzyme
Cytochrome P450 1A1 [10] = target: T2, Cytochrome P450 1A1; assay: Activity at recombinant CYP1A1 assessed as luteolin production at 10 uM after 20 mins by HPLC analysis; assay type: ADME; details: recombinant enzyme

SMILES: COc1ccc(-c2cc(=O)c3c(OC)c(OC)c(OC)cc3o2)cc1O
- Activity (MDA-MB-468 [1]): Active
- Ki (Cytochrome P450 1B1): 670 nM
- Ki (Cytochrome P450 1A1 [2]): 630 nM
- Activity (MCF-10A): inactive
- remaining at 20 min (CYP1A1): 20.4%
- Time (Cytochrome P450 1A1 [3]): 8.9 min
- Ratio IC50 (MDA-MB-468 [4]): 100
- Time [5]: 8.9 min

SMILES: COc1ccc(-c2cc(=O)c3c(O)cc(O)cc3o2)cc1 [ACACETIN]
- Time (Cytochrome P450 1A1 [6]): 11.3 min
- remaining at 20 min (CYP1A1): 15.9%
- Activity (Cytochrome P450 1A1 [7]): Active
- Activity (Cytochrome P450 1A1 [8]): Active
- Activity (Cytochrome P450 1A1 [9]): Active
- Activity (Cytochrome P450 1A1 [10]): Active

SMILES: O=c1cc(-c2ccccc2)oc2cc(O)c(O)c(O)c12 [BAICALEIN]
- Ki (Cytochrome P450 1B1): 260 nM
- Ki (Cytochrome P450 1A1 [2]): 1220 nM
- Ratio IC50 (MDA-MB-468 [4]): 1.7

SMILES: O=c1cc(-c2ccccc2)oc2cc(O)cc(O)c12 [CHRYSIN]
- remaining at 20 min (CYP1A1): 15.9%

SMILES: COc1cc2oc(-c3ccc(O)c(O)c3)cc(=O)c2c(O)c1OC [CIRSILIOL]
- Ki (Cytochrome P450 1B1): > 800 nM
- Ki (Cytochrome P450 1A1 [2]): > 800 nM
- remaining at 20 min (CYP1A1): 16.7%
- Ratio IC50 (MDA-MB-468 [4]): 8

SMILES: COc1ccc(-c2cc(=O)c3c(O)c(OC)c(OC)cc3o2)cc1O [EUPATORIN]
- Ki (Cytochrome P450 1B1): 35 nM
- Ki (Cytochrome P450 1A1 [2]): 210 nM
- remaining at 20 min (CYP1A1): 47.8%
- Ratio IC50 (MDA-MB-468 [4]): 100

SMILES: COc1cc(O)c2c(=O)cc(-c3ccc(O)cc3)oc2c1 [GENKWANIN]
- Ki (Cytochrome P450 1B1): > 2340 nM
- Ki (Cytochrome P450 1A1 [2]): > 2340 nM
- remaining at 20 min (CYP1A1): 34%
- Ratio IC50 (MDA-MB-468 [4]): 47

SMILES: O=c1c(O)c(-c2cc(O)c(O)c(O)c2)oc2cc(O)cc(O)c12 [MYRICETIN]
- Ki (Cytochrome P450 1B1): 27 nM
- Ki (Cytochrome P450 1A1 [2]): 370 nM

SMILES: O=c1cc(-c2ccc(O)cc2)oc2cc(O)c(O)c(O)c12 [SCUTELLAREIN]
- Ki (Cytochrome P450 1B1): 220 nM
- Ki (Cytochrome P450 1A1 [2]): 1640 nM
- remaining at 20 min (CYP1A1): 12.6%
- Ratio IC50 (MDA-MB-468 [4]): 3.3

SMILES: COc1ccc(-c2cc(=O)c3c(OC)c(OC)c(OC)cc3o2)cc1OC [SINENSETIN]
- remaining at 20 min (CYP1A1): 68.9%
- Ratio IC50 (MDA-MB-468 [4]): 325
